Where “and” joins values, the source holds several entries; their conditions need not be identical. Equal entries are not always repeated. Where two headings read alike, the source gives them in different places.
Tests used:
[1] = for Δct measured between the IV and PO data, free (+)-catechin / Δct measured between the IV and PO data, total (+)-catechin: PO vs IV; for plasma concentration (cc) of the free monomeric (+)-catechin / plasma concentration (cc) of the total monomeric (+)-catechin: 25 mg/kg (+)-catechin equivalent
Method: The experimental results described below were obtained on the basis of a study carried out in healthy human beings and in healthy Wistar rats weighing approximately 250 grams.
An acclimation period was observed before beginning the experiments.
The rats received an administration per os of a volume of 5 ml of a solution of active product.
With regard to taking the blood samples from the rats and from the human beings, the blood was collected in tubes internally coated with EDTA and was then centrifuged at 3000 rpm (revolutions per minute) at ambient temperature for 45 min, and then for 15 min at a temperature of 4° C. The plasma was then collected and stored at −70° C. before analysis.
The analytical technique (LC-MS/MS for Liquid Chromatography coupled to tandem Mass Spectrometry) for measuring the active substance in the blood was based on the method described by Mata-Bilbao et al., published in 2007 in the Journal of Agricultural and Food Chemistry, volume 55, page 8857.
The free (+)-catechin was extracted from the plasma with a solution of phosphoric acid, EDTA and ascorbic acid and was then purified by SPE (solid phase extraction); in particular, it is an Oasis™ HLB extraction which is analyzed by LC-MS/MS. The quantification was carried out according to a standard calibration procedure with (+/−)-catechin-2,3,4-^13C3 as internal standard (SI).
The procedure is identical with regard to the extraction and the quantification of free quercetin or ECGC in the blood.
With regard to the extraction and quantification of the total (+)-catechin, the procedure is the same as that applied to the free (+)-catechin, with the exception of the fact that an additional step prior to the purification by SPE is carried out.
(§1) Each of the mixtures is then solubilized in water.
Each of the mixtures is solubilized in water.

[2] = assay type: in vivo, Wistar rats; settings: IV, rats; for plasma concentration (cc) of the free monomeric (+)-catechin / plasma concentration (cc) of the total monomeric (+)-catechin: 25 mg/kg (+)-catechin equivalent
Excerpt: as §1

collagen of rat skin = assay: Total incorporation and incorporation into collagen of 3H-proline in the skin; assay type: in vivo, Wistar rats; settings: for increase in the level of incorporation: 100 mg/kg by gavage, vs control subgroup
Method: To do this, a study was carried out in vivo on a batch of 24 female Wistar rats weighing from 95 to 115 g, divided into two groups C and D, each of 12 rats. For each group, the radioactive 3H-hydroxyproline, the specific activity of which is 13.6 Ci/10-3 mol, was administered to all the animals by intraperitoneal injection of 3H-proline at a dose, relative to the weight of the individuals, of 1 mCi/kg, which represents an activity in terms of radioactive 3H-proline of 100 μCi/individual.
6 rats of each group received a treatment based on monomeric (+)-catechin by gavage in a proportion of 100 mg/kg for 5 days before sacrifice. […] The group C received monomeric (+)-catechin hydrochlorolysinate, while the group D received monomeric (+)-catechin ascorbolysinate.
In table 8, the level of incorporation is measured by the number of disintegrations of the radioactive 3H-hydroxyproline per minute (dpm) per mg of dry weight. The higher this number, the higher the concentration of 3H-hydroxyproline.
In this comparative example, a group E of 12 Wistar rats weighing from 95 to 115 g, in which radioactive 3H-hydroxyproline, the specific activity of which is 13.6 Ci/10-3 mol, was administered to all the individuals by intraperitoneal injection of 3H-proline at a dose, relative to the weight of the individuals, of 1 mCi/kg, which represents an activity in terms of radioactive 3H-proline of 100 μCi/individual.
6 rats of each group received a treatment based on pure monomeric (+)-catechin by gavage in a proportion of 100 mg/kg for 5 days before sacrifice.

[3] = system: monoclonal immunoglobulins (IgM); assay: Treatment of a patient with lymphoplasmocytic lymphoma (Waldenström macroglobulinemia type): IgM assay; assay type: in vivo, human; settings: one patient
Method: In the first patient a lymphoplasmocytic lymphoma (of Waldenström macroglobulinemia type) was detected during a post-operative blood test on day Do. The diagnosis is based on the electrophoretic detection of a monoclonal peak of immunoglobulins (IgM). This diagnosis was reconfirmed and the peak was assayed during a second analysis using the same detection by electrophoresis.
These immunoglobulins are found at a high concentration in the blood and in the urine. They therefore constitute real tumor markers. The assaying thereof gives an account of the number of sick cells and the extent of the disease and, consequently, makes it possible to monitor its progression under treatment.
Successive blood tests gave the following data for the IgM assay (in mg per 100 ml of plasma): […]

gastric mucosa = assay: Incidence of gastric ulcers and histamine level in the gastric mucosa in Mastomys; assay type: in vivo
Method: In this example, a sample of n=48 Mastomys are sensitized a first time by intraperitoneal injection of 3 μg of ovalbumin dissolved in 0.2 ml of saline solution containing 1 mg of aluminum hydroxide which brings about anti-immunoglobulin E (IgE) and G (IgG) antibodies. After 7 days, a second injection of 1 mg of ovalbumin in 0.01 ml of saline solution is given in the gastric mucosa at the level of the corpus of the anesthetized animals, which causes an ulcerated lesion at the actual site of the injection.
The 48 rats are divided up into three groups: one of 24 and two of 12 individuals. The first group of 24 individuals (G1) received a placebo (concentrated NaCl solution at 0.15 M).
The histamine level is measured for the G1, G2 and G3 groups on the basis of a sample of n=12 individuals.

[4] = system: clear cell renal carcinoma; assay: Treatment of a patient with renal adenocarcinoma; assay type: in vivo, human; settings: DT+19 months, reconfirmed DT+23 months; one patient, 500 mg per day orally, after nephrectomy, dissections and radiotherapy
Method: In the second patient, a left subclavicular cervical adenopathy was first of all detected on day Do. Next, 2 weeks later, a left renal adenocarcinoma was detected for this patient, which was followed by a nephrectomy of the left kidney 3 days after the detection of the adenocarcinoma in this kidney.
Thereafter, on day D0+3 months, a left cervical lymph node dissection is performed on the patient. This procedure was followed by a series of 15 radiotherapy sessions.
Starting from day D0+15 months (that is to say on day DT), the patient was orally administered a tablet of 500 mg of (+)-catechin hydrochlorolysinate per day.
On day DT+15 months, the appearance of a pathological mediastinal adenopathy (45 cm^3 in volume) was observed and required a mediastinal lymph node dissection followed by a pulmonary examination on day DT+17 months.

[5] = 25 mg/kg, rats, listed as C:Lys:HCl/1:2:2, 25 mg/kg
[6] = free (+)-catechin, rats, per os, dose equivalent to 25 mg/kg (+)-catechin, 5 Wistar rats, pulverulent mixture solubilized in water
[7] = treated, 100 mg/kg by gavage for 5 days, per mg of dry weight
[8] = G3, n = 12, 100 mg intraperitoneally
[9] = oral administration, vs placebo

In the case of `Cl.Cl.Cl.Cl.Cl.NCCCCC(N)C(=O)O.NCCCCC(N)C(=O)O.NCCCCC(N)C(=O)O.NCCCCC(N)C(=O)O.NCCCCC(N)C(=O)O.Oc1cc(O)c2c(c1)O[C@H](c1ccc(O)c(O)c1)[C@@H](O)C2.Oc1cc(O)c2c(c1)O[C@H](c1ccc(O)c(O)c1)[C@@H](O)C2` [1:2.5:2.5], the “ct, value reported on the curve in FIG. 5” value ([1]; rat, in vivo, 25 mg/kg) is reported as 105 k ng min/ml.
For `Cl.Cl.Cl.NCCCCC(N)C(=O)O.NCCCCC(N)C(=O)O.NCCCCC(N)C(=O)O.Oc1cc(O)c2c(c1)O[C@H](c1ccc(O)c(O)c1)[C@@H](O)C2` [1:3:3, reference compound], the “ct, calculated value” ([1]; rat, in vivo, 25 mg/kg) was 38 k ng min/ml.
For `Cl.Cl.Cl.Cl.Cl.NCCCCC(N)C(=O)O.NCCCCC(N)C(=O)O.NCCCCC(N)C(=O)O.NCCCCC(N)C(=O)O.NCCCCC(N)C(=O)O.Oc1cc(O)c2c(c1)O[C@H](c1ccc(O)c(O)c1)[C@@H](O)C2` [1:5:5, reference compound], the “ct, calculated value” ([1]; rat, in vivo, 25 mg/kg) was 26 k ng min/ml.
With `O=C(O[C@@H]1Cc2c(O)cc(O)cc2O[C@@H]1c1cc(O)c(O)c(O)c1)c1cc(O)c(O)c(O)c1` [EGCG, epigallocatechin gallate, reference compound] the “plasma levels measured (below the reliable limits of detection)” value ([1]; EGCG, rats, per os, dose equivalent to 25 mg/kg polyphenol) was “below 250 ng/ml”.
In the case of `O=c1c(O)c(-c2ccc(O)c(O)c2)oc2cc(O)cc(O)c12` [QP, quercetin, reference compound], the “Δct^q (difference of ct to QP, related back to QP)” value ([1]; Wistar, rat, in vivo, 25 mg/kg) is reported as 0%.
With `Cl.Cl.NCCCCC(N)C(=O)O.NCCCCC(N)C(=O)O.Oc1cc(O)c2c(c1)O[C@H](c1ccc(O)c(O)c1)[C@@H](O)C2` [[C:Lys:HCl/1:2:2]] the “Δct measured between the IV and PO data, free (+)-catechin” value ([1]; 25 mg/kg, rats, 25 mg/kg) was 88%, the “Δct measured between the IV and PO data, total (+)-catechin” value ([1]; 25 mg/kg, rats, 25 mg/kg) was 73% and the “Δct measured between the IV and PO data, free (+)-catechin” value [1, 5] was “+88%”. For the same compound, the “Δct measured between the IV and PO data, total (+)-catechin” value [1, 5] was “+73%”, the “total plasma concentration (ct) of the total monomeric (+)-catechin” value ([1]; PO, 25 mg/kg, rats) was 479 585 ng min/ml and the “plasma concentration (cc) of the free monomeric (+)-catechin” value ([1]; PO, T 10 min, rats) was 428 ng/mL. The “plasma concentration (cc) of the total monomeric (+)-catechin” value ([1]; PO, T 10 min, rats) was 1839 ng/mL, the “plasma concentration (cc) of the free monomeric (+)-catechin” value ([1]; PO, T 30 min, rats) was 1027 ng/mL and the “plasma concentration (cc) of the total monomeric (+)-catechin” value ([1]; PO, T 30 min, rats) was 3780 ng/mL. The “plasma concentration (cc) of the free monomeric (+)-catechin” value ([1]; PO, T 60 min, rats) was 1188 ng/mL, the “plasma concentration (cc) of the total monomeric (+)-catechin” value ([1]; PO, T 60 min, rats) was 3190 ng/mL and the “plasma concentration (cc) of the free monomeric (+)-catechin” value ([1]; PO, T 120 min, rats) was 767 ng/mL. For the same compound, the “plasma concentration (cc) of the total monomeric (+)-catechin” value ([1]; PO, T 120 min, rats) was 1990 ng/mL, the “plasma concentration (cc) of the free monomeric (+)-catechin” value ([1]; PO, T 240 min, rats) was 179 ng/mL and the “plasma concentration (cc) of the total monomeric (+)-catechin” value ([1]; PO, T 240 min, rats) was 475 ng/mL. The “T (max)” value [1, 6] was 1 h, the “c (max)” value [1, 6] was 1200 ng/mL and the “total plasma concentration (ct) of the free monomeric (+)-catechin” value ([2]; 25 mg/kg) was 87 970 ng min/ml. The “total plasma concentration (ct) of the total monomeric (+)-catechin” value ([2]; 25 mg/kg) was 277 040 ng min/ml, the “plasma concentration (cc) of the free monomeric (+)-catechin” value ([2]; T 10 min) was 3340 ng/mL and the “plasma concentration (cc) of the total monomeric (+)-catechin” value ([2]; T 10 min) was 8066 ng/mL. The “plasma concentration (cc) of the free monomeric (+)-catechin” value ([2]; T 30 min) was 991 ng/mL, the “plasma concentration (cc) of the total monomeric (+)-catechin” value ([2]; T 30 min) was 2639 ng/mL and the “plasma concentration (cc) of the free monomeric (+)-catechin” value ([2]; T 60 min) was 291 ng/mL. The “plasma concentration (cc) of the total monomeric (+)-catechin” value ([2]; T 60 min) was 1191 ng/mL, the “plasma concentration (cc) of the free monomeric (+)-catechin” value ([2]; T 120 min) was 0 ng/mL and the “plasma concentration (cc) of the total monomeric (+)-catechin” value ([2]; T 120 min, 25 mg/kg) was 340 ng/mL and 338 ng/mL. The “plasma concentration (cc) of the free monomeric (+)-catechin” value ([2]; T 240 min) was 0 ng/mL and the “plasma concentration (cc) of the total monomeric (+)-catechin” value ([2]; T 240 min) was 0 ng/mL.
In the case of `Cl.Cl.NCCCCC(N)C(=O)O.NCCCCC(N)C(=O)O.O=c1c(O)c(-c2ccc(O)c(O)c2)oc2cc(O)cc(O)c12` [[Q:Lys:HCl/1:2:2], reference compound], the “Δct^q (difference of ct to QP, related back to QP)” value ([1]; rat, in vivo, 25 mg/kg) is reported as “+18%”.
In the case of monomeric (+)-catechin ascorbolysinate, the “increase in the level of incorporation” value (collagen of rat skin) is reported as “+14%”.
With “monomeric (+)-catechin hydrochlorolysinate [[C:Lys:HCl/1:1:1]]” the “IgM level in the blood” value ([3]; DT + 4 months, tablet of 500 mg per day from day DT (IgM 2931 on DT)) was 2417 mg/100 ml, the “IgM level in the blood” value ([3]; DT + 9 months, tablet of 500 mg per day from day DT) was 2410 mg/100 ml and the “IgM level in the blood” value ([3]; DT + 15 months, tablet of 500 mg per day from day DT) was 2412 mg/100 ml. The “increase in the level of incorporation” value (collagen of rat skin) was “+15%”, the “level of incorporation into collagen (IC) of 3H-hydroxyproline in rat skin” value (collagen of rat skin; [7]) was 1343 ± 48 dpm/mg and the “level of total incorporation (IT) of 3H-hydroxyproline in rat skin” value (collagen of rat skin; [7]) was 6248 ± 124 dpm/mg. The “HL (histamine level in the gastric mucosa)” value (gastric mucosa; G2, n = 12, per os twice a day (2×300 mg)) was 37.91 ± 3.73 10^−6 mg/kg of protein, the “NU (number of animals exhibiting a gastric ulcer)” value (gastric mucosa; G2, n = 12, per os twice a day (2×300 mg), two days before and three days after injection) was 5 and the “HL (histamine level in the gastric mucosa)” value (gastric mucosa; [8]) was 34.98 ± 3.52 10^−6 mg/kg of protein. The “NU (number of animals exhibiting a gastric ulcer)” value (gastric mucosa; [8]) was 6, the “decrease in the histamine level (HL) in the gastric mucosa” value (gastric mucosa; [9]) was −18% and the “decrease in the number of animals exhibiting a gastric ulcer (NU)” value (gastric mucosa; [9]) was −72%. For the same compound, the “status of the clear cell renal carcinoma (consultation report)” value [4] was “complete remission”.

From US9844595B2, “Composition comprising a complex of (+)-catechin and amino acid for the treatment and prevention of cancer” (VALORE, priority 2013, dated 2017)
